Here are results for three molecules from patent publication EP1401829B1, “NOVEL HETEROCYCLIC ANTIBACTERIAL COMPOUNDS” (Microbiotix, Inc., priority 2001, dated 2002).

Each structure is given as a SMILES string. In brackets after ≈: the same amount, converted by molar mass. Marks after values point to notes of the source that are not given here.

One data set has as its system MSSA108. Description: MIC against clinically relevant strains. To be noted: Staphylococcus aureus; methicillin sensitive S. aureus strain. The data set is classed as cell-based. The protocol:
The following methods were used to characterize representative compounds. Minimal Inhibitory Concentration (MIC) determinations. MIC values were determined in 96 well plates, with bacterial growth monitored at OD 600 nm in 200µl following an initial bacterial seeding at approximately 1x10^5 colony forming units (CFU)/ml. Each drug is evaluated at five concentrations, with five data points at each dilution. MIC values (µg/ml) were determined against actively growing cultures in Heart-Brain Infusion (HBI) medium. Cell growth in cultures supplemented with a test compound was calculated as a percent of control at OD 600 nm after 16 to 18 hours at 37°C. This plate format conserves test compound and provides precise, quantitative data with low standard deviation determinations. Polymerase IIIC (Pol IIIC) assay. DNA polymerase activity (or inhibition thereof) was measured in a 96-well plate format. B. subtilis Pol IIIC was isolated as described by Hammond and Brown (Protein Expr. Purif., 3: 65-70 (1992)). Each 25 µl assay contained 30 mM Tris, pH 7.5, 10 mM magnesium acetate, 4 mM dithiothreitol, 20% glycerol, with 25 µM dATP, dCTP, dGTP and 10 µM dTTP (^3H-labelled at 1.44 Ci/mmole) and 0.4 mg/ml activated calf thymus DNA as substrates, as described previously (see Barnes et al, op. cit). Assays were initiated by the addition of 0.025 to 0.06 units of enzyme 1 unit is the amount required to incorporate 250 pmoles of [^3H] dTMP in a standard assay), incubated for 10 minutes at 30°C and terminated by the addition of 200 µl of cold 10% trichloroacetic acid (TCA),10 mM sodium pyrophosphate. Precipitated labeled DNA was collected on glass fiber filter plates, washed, dried, and counted in a liquid scintillation counter. Determination of Ki values. DNA polymerase activity was measured in a 96-well plate format in the absence of dGTP or dATP, depending on the structure of the test compound. Each 25 µl assay contained 30 mM Tris, pH 7.5, 10 mM magnesium acetate, 4 mM dithiothreitol, 20% glycerol, with 25 µM dATP, dCTP, and 10 µM dTTP (^3H-labelled at 1.44 Ci/mmole) and 0.4 mg/ml activated calf thymus DNA as substrates, as described previously. To each well were added 2 µl of compound solution to give final concentrations ranging from 20 - 0.027 µg/ml in the assay. Assays were initiated by the addition of 0.025 to 0.06 units of enzyme (1 unit is the amount required to incorporate 250 pmoles of [^3H] dTMP in a standard assay), incubated for 10 minutes at 30 °C and terminated by the addition of 200 µl of cold 10% trichloroacetic acid, 10 mM sodium pyrophosphate. Precipitated labeled DNA was collected on glass fiber filter plates, washed, dried, and counted in a liquid scintillation counter. Ki is the concentration of test compound that reduces the control polymerase IIIC activity by 50 percent.
Compounds were also tested for antibacterial activity against certain clinically relevant strains, e.g., methicillin sensitive (MSSA) and methicillin resistant (MRSA) strains of Staphylococcus aureus.

The subject of data set [1] is Staphylococcus aureus (Smith strain). Description: Protection of mice from lethal intraperitoneal infection, compound given intraperitoneally. The data set is classed as in vivo. To be noted: Swiss Webster mice, groups of five, 15 minutes after infection. The method, then:
• Figures 1A and 1B. Figure 1A is a diagram of the structural formula for Compound 2 (i.e., 3-{4-[1-(1-cyclopropyl-3-carboxy-4-oxo-6-fluoro-7-quinolyl)-4-piperazinyl]butyl}-6-(3-ethyl- 4-methylanilino)uracil). • Figure 1B is a bar graph showing number of survivors in each group of five mice at 24 hours after intraperitoneal infection with 1 x 10^8 colony forming units (CFU) of Staphylococcus aureus (Smith strain) and followed 15 minutes post infection by administration of Compound 2 at a dose of 0 (Vehicle Control), 1, 3, and 10 mg of compound per kg of body weight. Vancomycin at a dose of 10 mg/kg of body weight served as a positive control for antibiotic activity. See text for details. • Figures 2A and 2B. Figure 2A is a diagram of the structural formula for Compound 10 (i.e., 3-{4-[1-(1-cyclopropyl-3-carboxy-4-oxo-6-fluoro-7-quinolyl)-4-piperazinyl]butyl}-6-(3-ethyl-4-methylanilino)uracil methanesulfonate). • Figure 2B is a bar graph showing number of survivors of a group of five mice at 24 hours after intraperitoneal infection with Staphylococcus aureus (Smith strain) as in Figure 1B, except that Compound 10 was administered to each animal at 0, 0.1, 0.3, 1.0, 3.0, and 10 mg/kg body weight at 15 minutes post infection. Controls were the same as in Figure 1B. See text for details. • Figures 3A and 3B. […] Abbreviations: cPr is cyclopropyl; Et is ethyl; dFPh is 2,4-difluorophenyl. • Figure 3B is a bar graph showing number of survivors in each group of five mice at 24 hours after intraperitoneal infection with Staphylococcus aureus (Smith strain) as in Figure 1, except that 15 minutes after infection, the mice in each group received a dose of 0.5 mg/kg of body weight of compound 10, 4, 5, 6, 7, 8, or 12. Controls were the same as in Figure 1. See text for details.
(§1) Swiss Webster mice, ca. 20 g each, were infected with Staphylococcus aureus (Smith strain) by the intraperitoneal route. Test compounds (2, 4, 5, 6, 7, 8, 10, 12) were dissolved in 10% dimethylsulfoxide in peanut oil to a concentration of 2 mg/ml. Vancomycin was used as positive control drug (i.e., protection from lethal infection). Fifteen minutes after infection, test compounds, vancomycin, or vehicle alone were given intraperitoneally to groups of five mice each. Animals were monitored for three days, and the number of mice surviving was tabulated for each treatment.

The nature of data set [2]: Overt toxicity observed in mouse infection models. The data set is classed as in vivo. The conditions noted are these: mice; at therapeutic doses (doses providing survival above no treatment control). The protocol:
(§2) Using the same basic procedure as described above, the in vivo efficacy of Compound 70 was also evaluated at various doses in mice infected with S. aureaus (Smith), MRSA 1094, Enterococcus faecalis, or vancomycin-resistant Enterococcus faecalis strain VRE 700802. […] Negative controls were mice infected that received no treatment. Mucin was employed as an adjuvant to facilitate bacterial infection in mice, where indicated.

A further data set has as its system MRSA 1094. Description: In vivo efficacy of Compound 70 in mouse models. Set-up: species or system Staphylococcus aureus. To be noted: mice, 10^7 CFU/mouse + 5% Mucin, regimen 2 (t=0,2). The protocol:
as §1, §2

The test system of a further data set is VRE 700802. Description: In vivo efficacy of Compound 70 in mouse models. Set-up: species or system Enterococcus faecalis. To be noted: mice, 3x10^8 CFU/mouse + 5% Mucin. The protocol: as §1, §2
Where [3] appears, read: dosage range 1-10 mg/kg body weight intraperitoneally.
Setting [4] is: dose 50 mg/kg, regimen 2 (t=0,2).
Where [5] appears, read: dose 50 mg/kg, regimen 2 (t=0,3).
[6] abbreviates: dose 75 mg/kg, regimen 2 (t=0,2-).
The mark [7] stands for this setting: dose 75 mg/kg, regimen 2 (t=0,3).
Where [8] appears, read: dose 100 mg/kg, regimen 1 (t=0).

By MIC is commonly meant the smallest concentration in the dilution series that meets the test's criterion for growth inhibition. Higher therefore signals weaker potency. As to `CCc1cc(Nc2cc(=O)n(CCCCN3CCN(c4cc5c(cc4F)c(=O)c(C(=O)O)cn5C4CC4)CC3)c(=O)[nH]2)ccc1C` [Compound 2, 3-{4-[1-(1-cyclopropyl-3-carboxy-4-oxo-6-fluoro-7-quinolyl)-4-piperazinyl]butyl}-6-(3-ethyl-4-methylanilino)uracil], the MIC with MSSA108 worked out at 0.313 µg/mL (≈ 0.496 µM). In addition, in data set [1] (setting [3]), the “protection of infected mice (number of survivors)” value is given as “all five”.

For the molecule `CCc1cc(Nc2cc(=O)n(CCCCN3CCN(c4cc5c(cc4F)c(=O)c(C(=O)O)cn5C4CC4)CC3)c(=O)[nH]2)ccc1C.CS(=O)(=O)O` [Compound 10, 3-{4-[1-(1-cyclopropyl-3-carboxy-4-oxo-6-fluoro-7-quinolyl)-4-piperazinyl]butyl}-6-(3-ethyl-4-methylanilino)uracil methanesulfonate], the MIC against MSSA108 worked out at 0.625 µg/mL. The figures for the “protection of infected mice (number of survivors)” value in data set [1] (0.3 mg per kg body weight intraperitoneally), in data set [1] (1 mg/kg or higher intraperitoneally) and in data set [1] (setting [3]) were “one of five”, “complete protection” and “provided protection in the same dosage range as Compound 2”, respectively.

As for `CCc1cc(Nc2cc(=O)n(CCCCN3CCN(c4c(F)cc5c(=O)c(C(=O)O)cn(C6CC6)c5c4F)CC3C)c(=O)[nH]2)ccc1C` (centres unmarked) [Compound 70, 3-{4-[1-(1-cyclopropyl-3-carboxy-4-oxo-6,8-difluoro-7-quinolyl)-3-methyl-4-piperazinyl]butyl}-6-(3-ethyl-4-methylanilino)uracil], the overt toxicity result in data set [2] is “no overt toxicity”. In addition, the “% Survival at 72 hours” value with MRSA 1094 (dose 25 mg/kg) is listed as 0% (0/5); with MRSA 1094 (dose 50 mg/kg), 55% (11/20)*; with MRSA 1094 (dose 75 mg/kg), 80% (4/5); in the data set with VRE 700802 (setting [4]) it was 10% (1/10); in the data set on VRE 700802 (setting [5]) it was 0% (0/5); with VRE 700802 (setting [6]) it was 0% (0/5). In addition, the “% Survival at 72 hours” value is 40% (2/5) with VRE 700802 (setting [7]) and 0% (0/5) with VRE 700802 (setting [8]). Further, the “Mean Survival Time” value stood at 45 h in the data set with VRE 700802 (setting [4]); 35 h in the data set on VRE 700802 (setting [5]); 50 h in the data set with VRE 700802 (setting [6]); 50 h with VRE 700802 (setting [7]); 34 h in the data set on VRE 700802 (setting [8]).
